Several values for one entry are separate records, joined by “and”; a condition that tells them apart may be missing. Equal entries are not always repeated. Entries after “also recorded” stand apart in the source; their conditions may differ.
How the values were obtained:
[1] = test system: PANC1 pancreatic cancer cells; assay: Cell viability assay (WST-1) in PANC1 pancreatic cancer cells; assay type: cell-based, human; settings: for IC50: WST-1 dye 6 days after treatment, calculated using CompuSyn
Procedure: (§1) Cell culture. The human pancreatic cancer cell lines ASPC-1, HS766T, and Panc-1, were obtained from the American Type Culture Collection (ATCC) and maintained in various types of media. Specifically, HS766T and PANC1 cells were cultured in DMEM containing media, and APSC-1 cells were maintained in RPMI medium (Thermo Fischer). Media was supplemented with 10% fetal bovine serum (Thermo Fischer).
(§2) Cell viability assay. Cells were plated 1000 cells per well in 96 well plates. Twenty four hours later cell media was changed to media supplemented with DFBS, with 50, 25, 12.5, 6.25, 3.125 or 1.5625 nM of Control miRNA (Thermo Fischer), miR-194, 5-FU-miR-194, Gem-mIR-194 or 5-FU-Gem-miR-194. 24 hours later media was changed again to fresh media supplemented with DFBS. 6 days after treatment cell number was assessed using WST-1 dye (Roche). Cells were incubated with 10 μl of WST-1 dye per 100 μl of media for 1 hour and absorbance was read at 450 and 630 nm. The optical density (O.D.) was calculated by subtracting the absorbance at 630 nm from that at 450 nm. IC^50 values were calculated using CompuSyn software (ComboSyn, Inc).

[2] = test system: ASPC1 pancreatic cancer cells; assay: Cell viability assay (WST-1) in ASPC1 pancreatic cancer cells; assay type: cell-based, human; settings: for IC50: WST-1 dye 6 days after treatment, calculated using CompuSyn
Procedure: as §1, §2

SET8 = assay: Western immunoblot analysis of miR-194 target SET8 expression; assay type: cell-based, human; settings: 50 nM
Procedure: as §1
(§3) Western immunoblot analysis. Twenty-four hours prior to transfection 1×10^5 cells were plated in 6 well plates. Cells were either transfected using Oligofectamine (Thermo Fischer) or no transfection vehicle, with 50 nM control miRNA (Thermo Fischer), miR-194 or one of the three miR-194 mimics. Three days following transfection protein was collected in RIPA buffer with protease inhibitor (Sigma). Equal amounts of protein (15 μg), were separated on 10% sodium dodecyl sulfate-polyacrylamide gels as described in Laemmli U K. Nature. 1970; 227(5259) pp. 680-685, the entire contents of which is incorporated herein by reference. Proteins were probed with anti-SET8 or BMI-1 (1:500) (Cell Signaling Technologies) and anti-GAPDH (1:100000) antibodies. Horseradish peroxidase conjugated antibodies against mouse or rabbit (1:5000, Santa Cruz Biotech Inc.) were used as the secondary antibodies. Protein bands were visualized with autoradiography film using SuperSignal West Pico Chemiluminescent Substrate (Thermo Fischer).

[3] = test system: HS766T pancreatic cancer cells; assay: Cell viability assay (WST-1) in HS766T pancreatic cancer cells; assay type: cell-based, human; settings: for IC50: WST-1 dye 6 days after treatment, calculated using CompuSyn
Procedure: as §1, §2

BMI1 = assay: Western immunoblot analysis of miR-194 target BMI1 expression; assay type: cell-based, human; settings: 50 nM
Procedure: as §1, §3

[4] = test system: Luciferase-expressing HS766T cells; assay: Pancreatic cancer metastasis mouse model (tail vein injection, IVIS imaging); assay type: in vivo; settings: 80 μg intravenous injection every other day for two weeks, started four days after establishing metastasis, versus negative control microRNA
Procedure: (§4) Mouse subcutaneous tumor implantation model. For in vivo miRNA delivery experiments, pancreatic cancer cells were created that expressed the lenti-luc reporter gene by infecting parental pancreatic cancer cells with a recombinant lentivirus. Luciferase-expressing HS766T cells (2.0×10^6 cells per mouse) were suspended in 0.1 mL of PBS solution and was injected through tail vein of each mouse. Four days after injection of pancreatic cancer cells, mice were treated via tail vein injection with 80 μg of negative control or modified miR(s) packaged with in vivo-jet PEI (Polyplus Transfection). Mice were treated every other day for 2 weeks (8 times). Following treatment, mice were screened using IVIS Spectrum In vivo Imaging System (IVIS) (PerkinElmer).

[5] = Toxicity in mice treated in the pancreatic cancer metastasis model; assay type: in vivo; settings: mouse; 80 μg intravenous injection every other day for two weeks
Procedure: as §4

[6] = in the presence of a transfection agent (Oligofectamine), three days following transfection, FIG. 2A
[7] = no transfection vehicle, three days, FIG. 2B
[8] = in the presence of a transfection agent (Oligofectamine), three days following transfection, FIG. 2C
[9] = no transfection vehicle, three days, FIG. 2D

Substance | IC50 [1] | IC50 [2] [nM] | SET8 protein expression (Western blot) (SET8; [6]) | SET8 protein expression (Western blot) (SET8; [7]) | IC50 [3] [nM] | BMI1 protein expression (Western blot) (BMI1; [8]) | BMI1 protein expression (Western blot) (BMI1; [9]) | pancreatic cancer cell viability (in words) ([1]; 1.5625-50 nM, FIG. 3B) | metastatic pancreatic cancer growth ([4]; FIG. 4) | metastatic pancreatic cancer growth ([4]; FIG. 4, listed as SEQ ID NO: 2) | metastatic pancreatic cancer growth ([4]; FIG. 4, listed as SEQ ID NOs: 2) | pancreatic cancer cell viability (in words) ([2]; 1.5625-50 nM, FIG. 3A) | toxicity in treated mice [5] | pancreatic cancer cell viability (in words) ([3]; 1.5625-50 nM, FIG. 3C)
5-FU-miR-194 (NGNAACAGCAACNCCANGNGGA; 5-FU replacing U; fluorouracil modified miR-194 with a fluorouracil molecule at positions 1, 3, 13, 17 and 19; (1)..(1) N is Fluorouracil molecule; (3)..(3) N is Fluorouracil molecule; (13)..(13) N is Fluorouracil molecule; (17)..(17) N is Fluorouracil molecule; (19)..(19) N is Fluorouracil molecule) | 16 nM and 16.7 nM | 6.06 | more potent than unmodified (control) miR-194 | retain the ability to inhibit SET8 | 26.4 | more potent than unmodified (control) miR-194 | retain the ability to inhibit | – | – | – | – | – | – | –
Gem-miR-194: modified miR-194, all 5 cytosine bases in the guide strand replaced by gemcitabine: UGUAANAGNAANUNNAUGUGGA [SEQ ID NO. 2], N is gemcitabine (cytosines replaced by gemcitabine, chemistry not fully specified) | 1.92 nM | 4.29 | more potent than unmodified (control) miR-194; also recorded: inhibit SET8 and BMI1 | retain the ability to inhibit SET8; also recorded: inhibit SET8 and BMI1 | 3.57 | more potent than unmodified (control) miR-194; also recorded: inhibit SET8 and BMI1 | retain the ability to inhibit; also recorded: inhibit SET8 and BMI1 | reduce pancreatic cancer cell viability | able to inhibit metastatic pancreatic cancer growth compared to control | inhibiting tumor growth in vivo | able to inhibit metastatic pancreatic cancer growth compared to control | reduce pancreatic cancer cell viability | did not exhibit any toxicity | reduce pancreatic cancer cell viability
miR-194: unmodified (native) miR-194 sequence UGUAACAGCAACUCCAUGUGGA [SEQ ID NO. 1] (unmodified RNA; listed as Homo sapiens) [reference compound] | – | – | – | – | – | – | unable to inhibit target expression | – | – | – | – | – | – | –

Reference: patent US20220145304A1, “MODIFIED MICRORNAS AND THEIR USE IN THE TREATMENT OF CANCER” (The Research Foundation for The State University of New York, priority 2019, published 2022)
